{"source": "patent US8048407B2", "about": "“In situ gelling self-reactive materials for embolization” (priority 2003, dated 2011)", "origin": "cited, not measured here", "details": "literature studies", "data": [{"smiles": "C=CC(=O)NCNC(=O)C=C", "note": "[NMBA, N,N-methylenebisacrylamide]", "values": [{"measurement": "cross-link efficiency", "value": 0.0066}]}]}
